Measured values published in patent US20240254129A1, “HETEROCYCLIC COMPOUNDS AND USES THEREOF” (Kumquat Biosciences Inc., priority 2021, published 2024).
Read-outs that look alike come from different tables or passages of the source.

Experiments:
[1] = target: T1, wildtype Kras / hSOS1 (Homo sapiens, UniProt P01116); experiment: HTRF assay, wildtype Kras / SOS1 interaction; type: binding; conditions: read-out: IC50 against wildtype Kras
T1 construct: made in house; host or cells: E. coli BL21 (DE3)
T1 sequence (P01116 1-188 isoform P01116-2): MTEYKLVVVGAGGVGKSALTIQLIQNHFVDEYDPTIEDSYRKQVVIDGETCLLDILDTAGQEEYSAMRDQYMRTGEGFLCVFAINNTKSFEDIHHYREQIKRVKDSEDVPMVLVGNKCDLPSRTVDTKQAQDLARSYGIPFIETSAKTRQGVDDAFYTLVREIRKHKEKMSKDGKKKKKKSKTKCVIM
Text: (§1) This assay can be also used to assess a selective inhibition of a mutant Ras protein relative to a wildtype, or relative to a different mutant Ras protein. For example, the equilibrium interaction of wildtype Kras or K-Ras mutant (e.g., wildtype or a mutant thereof including those mentioned in Example 6) with SOS1 (e.g., hSOS1) can be assessed as a proxy or an indication for a subject compound's ability to bind and inhibit Ras protein. HTRF assay detects from (i) a fluorescence resonance energy transfer (FRET) donor (e.g., antiGST-Europium) that is bound to GST-tagged K-Ras mutant to (ii) a FRET acceptor (e.g., anti-6His-XL665) bound to a His-tagged hSOS1.
(§2) The assay buffer can contain ˜5 mM HEPES pH 7.4, ˜150 mM NaCl, ˜ 1 mM DTT, 0.05% BSA and 0.0025% (v/v) Igepal. A Ras working solution is prepared in an assay buffer containing typically a suitable amount of the protein construct (e.g., GST-tagged K-Ras mutant) and the FRET donor (e.g., antiGST-Eu(K) from Cisbio, France). A SOS1 working solution is prepared in an assay buffer containing suitable amount of the protein construct (e.g., His-hSOS1) and the FRET acceptor (e.g., anti-6His-XL665 from Cisbio, France). A suitable amount of the protein construct will depend on the range of activity or range of IC50 values being detected or under investigation. For detecting IC50 within a range of 500 nM, the protein constructs of the same range of molarity can be utilized.
(§3) A fixed volume of DMSO with or without test compound is transferred into a 384-well plate. Ras working solution is added to all wells of the test plate. SOS1 working solution is added to all wells except for those that are subsequently filled the inhibitor control solution. Upon incubation for about 10 minutes or longer, the fluorescence is measured with a M1000Pro plate reader (Tecan) using HTRF detection (excitation 337 nm, emission 1: 620 nm, emission 2: 665 nm). Compounds are tested in duplicates at different concentrations (for example, 10 μM, 2.5 μM, 0.63 μM, 0.16 μM, 0.04 µM, 0.01 μM test compound). The ratiometric data (i.e., emission 2 divided by emission 1) is used to calculate IC50 values against Ras using GraphPad Prism (GraphPad software). Following this general procedure, samples were tested with or without a subject compound disclosed herein including compounds exemplified in Table 1 to assess their abilities to inhibit K-Ras signaling or their respective IC50 values against a given Ras protein (e.g., a given mutant K-Ras) of interest.

[2] = target: GST-tagged K-Ras mutant / His-tagged hSOS1 (Homo sapiens, UniProt P01116); experiment: HTRF assay, K-Ras mutant / SOS1 interaction; type: binding; conditions: read-out: IC50 against mutant Kras
Chain of GST-tagged K-Ras mutant / His-tagged hSOS1 (P01116 whole entry G12D, form open): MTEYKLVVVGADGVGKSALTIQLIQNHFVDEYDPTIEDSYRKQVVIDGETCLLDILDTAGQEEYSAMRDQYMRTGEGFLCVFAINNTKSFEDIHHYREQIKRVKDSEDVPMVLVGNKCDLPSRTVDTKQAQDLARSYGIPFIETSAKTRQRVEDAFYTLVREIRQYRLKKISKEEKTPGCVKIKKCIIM
Text: as §1, §2, §3

[3] = compound nos. 102-196, general methodology of example 5

SMILES | IC50 ([1]; compound nos. 401-703) [nM] | IC50 ([2]; compound nos. 401-703) [nM] | IC50 [1, 3] [nM] | IC50 [2, 3] [nM]
CN1CCC[C@H]1COc1nc(N2CCNC3COCC32)c2cc(Cl)c(-c3cccc4sc(N)nc34)c(F)c2n1 (stereo partly drawn) [Compound 107, 4-(6-chloro-8-fluoro-4-(hexahydrofuro[3,4-b]pyr-azin-1(2H)-yl)-2-(((S)-1-methylpyrrolidin-2-yl)meth-oxy)quinazolin-7-yl)benzo-[d]thiazol-2-amine] |  |  | > 500 | > 500
CN1CCC[C@H]1COc1nc(N2CCCC(NS(C)(=O)=O)CC2)c2cc(Cl)c(-c3cccc4sc(N)nc34)c(F)c2n1 (stereo partly drawn) [Compound 439, N-(1-(7-(2-aminobenzo[d]-thiazol-4-yl)-6-chloro-8-fluoro-2-(((S)-1-methyl-pyrrolidin-2-yl)methoxy)-quinazolin-4-yl)azepan-4-yl)methanesulfonamide] | < 500 | < 500 |  | 
Nc1nc2c(-c3c(Cl)cc4c(N5CCCC(N)CC5)nc(OC[C@@]56CCCN5C[C@H](F)C6)nc4c3F)ccc(F)c2s1 (stereo partly drawn) [Compound 431, 4-(4-(4-aminoazepan-1-yl)-6-chloro-8-fluoro-2-(((2R,7aS)-2-fluorotetra-hydro-1H-pyrrolizin-7a(5H)-yl)methoxy)quinazolin-7-yl)-7-fluorobenzo[d]thiazol-2-amine] | < 500 | < 500 |  | 
N#C/C=C/c1cc2c(N3CC4CCC(C3)N4)nc(OC[C@@]34CCCN3C[C@H](F)C4)nc2c(F)c1-c1ccc(F)c2sc(N)nc12 [Compound 495, (E)-3-(7-(2-amino-7-fluoro-benzo[d]thiazol-4-yl)-4-(3,8-diazabicyclo[3.2.1]octan-3-yl)-8-fluoro-2-(((2R,7aS)-2-fluorotetrahydro-1H-pyrrol-izin-7a(5H)-yl)methoxy)-quinazolin-6-yl)acrylonitrile] | < 500 | > 500 |  | 
CN1CCCC1CCn1nc(N2CC3CCC(C2)N3)c2ccc(-c3ccc(F)c4sc(N)nc34)c(F)c2c1=O (centres unmarked) [Compound 420, 7-(2-amino-7-fluorobenzo-[d]thiazol-4-yl)-4-(3,8-diazabicyclo[3.2.1]octan-3-yl)-8-fluoro-2-(2-(1-methyl-pyrrolidin-2-yl)ethyl)phthal-azin-1(2H)-one] | < 500 | > 500 |  | 
CN1CCC(COc2nc(N3CCNCC(F)(F)C3)c3cc(Cl)c(-c4cccc5sc(N)nc45)c(F)c3n2)CC1 [Compound 134, 4-(6-chloro-4-(6,6-difluoro-1,4-diazepan-1-yl)-8-fluoro-2-((1-methylpiperidin-4-yl)-methoxy)quinazolin-7-yl)-benzo[d]thiazol-2-amine] |  |  | < 500 | > 500
CN1CCC[C@H]1COc1nc(N2CCCC3(CNC3)C2)c2cc(Cl)c(-c3cccc4sc(N)nc34)c(F)c2n1 [Compound 132, 4-(6-chloro-8-fluoro-2-(((S)-1-methylpyrrolidin-2-yl)-methoxy)-4-(2,6-diazaspiro-[3.5]nonan-6-yl)quinazolin-7-yl)benzo[d]thiazol-2-amine] |  |  | > 500 | > 500
CN1CCC[C@H]1COc1nc(N2CCCC(N3CC(N)C3)CC2)c2cc(Cl)c(-c3cccc4sc(N)nc34)c(F)c2n1 (stereo partly drawn) [Compound 441, 4-(4-(4-(3-aminoazetidin-1-yl)azepan-1-yl)-6-chloro-8-fluoro-2-(((S)-1-methyl-pyrrolidin-2-yl)methoxy)-quinazolin-7-yl)benzo[d]-thiazol-2-amine] | < 500 | > 500 |  | 
Nc1nc2c(-c3c(Cl)cc4c(N5CCCCC(F)(F)C5)nc(OC[C@@]56CCCN5C[C@H](F)C6)nc4c3F)ccc(F)c2s1 [Compound 168, 4-(6-chloro-4-(3,3-difluoro-azepan-1-yl)-8-fluoro-2-(((2R,7aS)-2-fluorotetra-hydro-1H-pyrrolizin-7a(5H)-yl)methoxy)quinazolin-7-yl)-7-fluorobenzo[d]thiazol-2-amine] |  |  | < 500 | < 500
CN1CCC[C@H]1COc1nc(N2CCCC(NC3CNC3)CC2)c2cc(Cl)c(-c3cccc4sc(N)nc34)c(F)c2n1 (stereo partly drawn) [Compound 554, 4-(4-(4-(azetidin-3-yl-amino)azepan-1-yl)-6-chloro-8-fluoro-2-(((S)-1-methylpyrrolidin-2-yl)-methoxy)quinazolin-7-yl)-benzo[d]thiazol-2-amine] | > 500 | > 500 |  | 
Cc1ccc2[nH]nc(N)c2c1-c1c(Cl)cc2c(N3CCNCC(F)(F)C3)nc(OC[C@@H]3CCCN3C)nc2c1F [Compound 171, 4-(6-chloro-4-(6,6-difluoro-1,4-diazepan-1-yl)-8-fluoro-2-(((S)-1-methylpyrrolidin-2-yl)methoxy)quinazolin-7-yl)-5-methyl-1H-indazol-3-amine] |  |  | > 500 | > 500
Cc1ccc2cnn(C)c2c1-c1c(Cl)cc2c(N3CC4CCC(C3)N4)nc(OCC3(CN4CCCC4)CC3)nc2c1F [Compound 438, 4-(3,8-diazabicyclo[3.2.1]-octan-3-yl)-6-chloro-7-(1,6-dimethyl-1H-indazol-7-yl)-8-fluoro-2-((1-(pyrrolidin-1-ylmethyl)cyclopropyl)meth-oxy)quinazoline] | < 500 | > 500 |  | 

Further lines, results first:

IC50 ([1]; compound nos. 401-703) [nM] | IC50 ([2]; compound nos. 401-703) [nM] | IC50 [1, 3] [nM] | IC50 [2, 3] [nM] | SMILES
> 500 | < 500 |  |  | N#Cc1c(N)sc2c(F)ccc(-c3c(Cl)cc4c(N5C[C@H]6CC[C@@H](C5)N6CC5COC5)nc(OC[C@@]56CCCN5C[C@H](F)C6)nc4c3F)c12 [Compound 643, 2-amino-4-(6-chloro-8-fluoro-2-(((2R,7aS)-2-fluorotetrahydro-1H-pyrrolizin-7a(5H)-yl)-methoxy)-4-((1R,5S)-8-(oxetan-3-yl-methyl)-3,8-diazabicyclo[3.2.1]-octan-3-yl)quinazolin-7-yl)-7-fluorobenzo[b]-thiophene-3-carbonitrile]
> 500 | > 500 |  |  | Cc1ccc(C2(N)CC2)cc1-c1c(Cl)cc2c(N3CC4CCC(C3)N4)nc(OCC34CCCN3CCC4)nc2c1F [Compound 661, 1-(3-(4-(3,8-diazabicyclo-[3.2.1]octan-3-yl)-6-chloro-8-fluoro-2-((tetrahydro-1H-pyrrolizin-7a(5H)-yl)meth-oxy)quinazolin-7-yl)-4-methylphenyl)cyclopropan-1-amine]
> 500 | > 500 |  |  | CN1CCC[C@H]1COc1nc(N2CCCC(NC3CC3)CC2)c2cc(Cl)c(-c3cccc4sc(N)nc34)c(F)c2n1 (stereo partly drawn) [Compound 559, 4-(6-chloro-4-(4-(cyclo-propylamino)azepan-1-yl)-8-fluoro-2-(((S)-1-methyl-pyrrolidin-2-yl)methoxy)-quinazolin-7-yl)benzo[d]-thiazol-2-amine]
> 500 | < 500 |  |  | Nc1nc2c(-c3c(Cl)cc4c(N5CC6CCC(C5)N6)nc(OCC5(CN6CCCC6)CC5)nc4c3F)cccc2o1 [Compound 653, 4-(4-(3,8-diazabicyclo-[3.2.1]octan-3-yl)-6-chloro-8-fluoro-2-((1-(pyrrolidin-1-ylmethyl)cyclopropyl)meth-oxy)quinazolin-7-yl)benzo-[d]oxazol-2-amine]
> 500 | < 500 |  |  | Nc1nc2c(-c3c(Cl)cc4c(N5CC6CCC(C5)N6)nc(OCC56CCCN5CCC6)nc4c3F)cc(Cl)cc2s1 [Compound 615, 4-(4-(3,8-diazabicyclo-[3.2.1]octan-3-yl)-6-chloro-8-fluoro-2-((tetrahydro-1H-pyrrolizin-7a(5H)-yl)meth-oxy)quinazolin-7-yl)-6-chlorobenzo[d]thiazol-2-amine]
> 500 | < 500 |  |  | CS(=O)(=O)N1CCCN(c2nc(OC[C@@]34CCCN3C[C@H](F)C4)nc3c(F)c(-c4ccc(F)c5sc(N)nc45)c(Cl)cc23)CC1 [Compound 644, 4-(6-chloro-8-fluoro-2-(((2R,7aS)-2-fluorotetra-hydro-1H-pyrrolizin-7a(5H)-yl)methoxy)-4-(4-(methylsulfonyl)-1,4-diazepan-1-yl)quinazolin-7-yl)-7-fluorobenzo[d]thia-zol-2-amine]
> 500 | < 500 |  |  | Nc1nc2c(-c3c(Cl)cc4c(N5CC6CCCC(C5)N6)nc(OC[C@@]56CCCN5C[C@H](F)C6)nc4c3F)ccc(F)c2s1 [Compound 607, 4-(4-(3,9-diazabicyclo-[3.3.1]nonan-3-yl)-6-chloro-8-fluoro-2-(((2R,7aS)-2-fluorotetrahydro-1H-pyrrol-izin-7a(5H)-yl)methoxy)-quinazolin-7-yl)-7-fluoro-benzo[d]thiazol-2-amine]
